Measured values reported in patent US20110112164A1, “NOVEL POLYMORPHS AND PROCESSES FOR THEIR PREPARATION” (Generics (UK) Limited, priority 2008, published 2011).
Where two headings read alike, the source gives them in different places.

Key:
[1] = prior art form of WO 03/016305; cited from earlier work
[2] = prior art form of WO 03/016305; cited from earlier work; remark: listed apart in the source
[3] = Stability (thermodynamic / polymorphic) of crystalline forms of sunitinib malate; assay type: physicochemical; conditions: crystalline solid form
[4] = Hygroscopicity of crystalline forms of sunitinib malate; assay type: physicochemical; conditions: crystalline solid form

Row | Structure (SMILES) | hygroscopicity [1] | polymorphic conversion [2] | thermodynamic stability [2] | stability [3] | hygroscopicity [4]
1 | CCN(CC)CCNC(=O)c1c(C)[nH]c(/C=C2\C(=O)Nc3ccc(F)cc32)c1C.O=C(O)CC(O)C(=O)O [Form II, (Z)—N-[2-(diethylamino)ethyl]-5-(5-fluoro-2-oxo-2,3-dihydro-1H-indole-3-ylidenemethyl)-2,4-dimethyl-1H-pyrrole-3-carboxamide 2(S)-hydroxybutanedioic acid] | hygroscopic | readily convert to form I | thermodynamically unstable |  | 
2 | CCN(CC)CCNC(=O)c1c(C)[nH]c(/C=C2\C(=O)Nc3ccc(F)cc32)c1C.O=C(O)CC(O)C(=O)O [form III, (Z)—N-[2-(diethylamino)ethyl]-5-(5-fluoro-2-oxo-2,3-dihydro-1H-indole-3-ylidenemethyl)-2,4-dimethyl-1H-pyrrole-3-carboxamide 2(S)-hydroxybutanedioic acid] |  |  |  | stable | non-hygroscopic
